# Test system: α-SMA
# Experiment: α-SMA expression inhibitory ability in MRC5 cell line (Western blotting)
# Type: cell-based
# Conditions: TGF-β1 (10 ng/mL), 72 hours, relative to TGF-β1 only
# Outline: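 MRC5 cells given compound at 10 μM, then TGF-β1 (10 ng/mL) 2 h later; after 72 h, lysates probed for α-SMA by Western blot. Inhibition is α-SMA level relative to TGF-β1 alone, binned A ≥70%, B 50–<70%, C <50%.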
row,Compound,inhibition at 10 µM [%]
1,"O=C(CCN1CCCCC1)N1CCN(c2ccc(F)cc2)c2cc(F)ccc21 [Compound 38, 1-(6-fluoro-4-(4-fluorophenyl)-3,4-dihydroquinoxaline-1(2H)-yl)-3-(piperidin-1-yl)propan-1-one]",≥ 70
2,"O=C(CN1CCCC1)N1CCN(C2CCCCC2)c2ccccc21 [Compound 193, 1-(4-cyclohexyl-3,4-dihydroquinoxaline-1(2H)-yl)-2-(pyrrolidin-1-yl)ethan-1-one]",< 50
3,"O=C(CCN1CCCCC1)N1CCN(c2ccccc2)c2cc(F)ccc21 [Compound 3, 1-(6-fluoro-4-phenyl-3,4-dihydroquinoxaline-1(2H)-yl)-3-(piperidin-1-yl)propan-1-one]",50 to 70
4,"C[C@@H]1CCCN1CCC(=O)N1CCN(c2ccccc2)c2cc(F)ccc21 [Compound 5, (R)-1-(6-fluoro-4-phenyl-3,4-dihydroquinoxaline-1(2H)-yl)-3-(2-methylpyrrolidin-1-yl)propan-1-one]",< 50
5,"CN1CCN(CCC(=O)N2CCN(c3ccc(F)cc3)c3ccccc32)CC1 [Compound 17, 1-(4-(4-fluorophenyl)-3,4-dihydroquinoxaline-1(2H)-yl)-3-(4-methylpiperazin-1-yl)propan-1-one di-p-toluene sulfonate]",50 to 70
6,"C[C@@H]1CCCCN1CCC(=O)N1CCN(c2ccc(F)cc2)c2ccccc21 [Compound 19, (R)-1-(4-(4-fluorophenyl)-3,4-dihydroquinoxaline-1(2H)-yl)-3-(2-methylpiperidin-1-yl)propan-1-one]",< 50
7,"O=C(CCN1CCCCC1)N1CCN(C2CCCCC2)c2ccccc21 [Compound 187, 1-(4-cyclohexyl-3,4-dihydroquinoxaline-1(2H)-yl)-3-(piperidin-1-yl)propan-1-one]",≥ 70
8,"CN1CCN(CCC(=O)N2CCN(c3ccccc3Cl)c3ccccc32)CC1 [Compound 127, 1-(4-(2-chlorophenyl)-3,4-dihydroquinoxaline-1(2H)-yl)-3-(4-methylpiperazin-1-yl)propan-1-one]",50 to 70
9,"C[C@@H]1CCCCN1CCC(=O)N1CCN(c2ccccc2)c2cc(F)ccc21 [Compound 6, (R)-1-(6-fluoro-4-phenyl-3,4-dihydroquinoxaline-1(2H)-yl)-3-(2-methylpiperidin-1-yl)propan-1-one]",50 to 70
10,"CC(C(=O)N1CCN(c2ccc(Cl)cc2)c2ccccc21)N1CCN(C)CC1 (stereo not shown) [Compound 145, 1-(4-(4-chlorophenyl)-3,4-dihydroquinoxaline-1(2H)-yl)-2-(4-methylpiperazin-1-yl)propan-1-one]",≥ 70
11,"CC(C(=O)N1CCN(c2ccccc2)c2cc(F)ccc21)N1CCCCC1 (stereo not shown) [Compound 12, 1-(6-fluoro-4-phenyl-3,4-dihydroquinoxaline-1(2H)-yl)-2-(piperidin-1-yl)propan-1-one]",≥ 70
12,"CC(C(=O)N1CCN(c2cccc(Cl)c2)c2ccccc21)N1CCN(C)CC1 (stereo not shown) [Compound 137, 1-(4-(3-chlorophenyl)-3,4-dihydroquinoxaline-1(2H)-yl)-2-(4-methylpiperazin-1-yl)propan-1-one]",≥ 70
13,"C[C@@H]1CCCCN1C(=O)CN1CCN(c2ccccc2)c2ccccc21 [Compound 70, (R)-1-(2-methylpiperidin-1-yl)-2-(4-phenyl-3,4-dihydroquinoxaline-1(2H)-yl)ethan-1-one]",50 to 70
14,"CC(C)N1CCN(C(=O)CCN2CCCC2)c2ccccc21 [Compound 177, 1-(4-isopropyl-3,4-dihydroquinoxaline-1(2H)-yl)-3-(pyrrolidin-1-yl)propan-1-one]",< 50
15,"CN1CCN(CCC(=O)N2CCN(c3cccc(Cl)c3)c3ccccc32)CC1 [Compound 135, 1-(4-(3-chlorophenyl)-3,4-dihydroquinoxaline-1(2H)-yl)-3-(4-methylpiperazin-1-yl)propan-1-one]",≥ 70
16,"O=C(CCN1CCCC1)N1CCN(c2ccc(F)cc2)c2ccccc21 [Compound 14, 1-(4-(4-fluorophenyl)-3,4-dihydroquinoxaline-1(2H)-yl)-3-(pyrrolidin-1-yl)propan-1-one]",≥ 70
17,"N[C@@H](Cc1c[nH]cn1)C(=O)N1CCN(c2ccc(F)cc2)c2cc(F)ccc21 [Compound 47, (S)-2-amino-1-(6-fluoro-4-(4-fluorophenyl)-3,4-dihydroquinoxaline-1(2H)-yl)-3-(1H-imidazol-4-yl)propan-1-one]",50 to 70
18,"C[C@@H]1CCCN1CCC(=O)N1CCN(c2ccccc2)c2ccccc21 [Compound 57, (R)-3-(2-methylpyrrolidin-1-yl)-1-(4-phenyl-3,4-dihydroquinoxaline-1(2H)-yl)propan-1-one]",< 50
19,"CC(C(=O)N1CCN(C(C)C)c2ccccc21)N1CCN(C)CC1 (stereo not shown) [Compound 182, 1-(4-isopropyl-3,4-dihydroquinoxaline-1(2H)-yl)-2-(4-methylpiperazin-1-yl)propan-1-one]",< 50
20,"O=C(CCNCc1ccccn1)N1CCN(c2ccc(F)cc2)c2ccccc21 [Compound 21, 1-(4-(4-fluorophenyl)-3,4-dihydroquinoxaline-1(2H)-yl)-3-((pyridin-2-ylmethyl)amino)propan-1-one]",50 to 70
21,"CN1CCN(CC(=O)N2CCN(c3cccc(Cl)c3)c3ccccc32)CC1 [Compound 139, 1-(4-(3-chlorophenyl)-3,4-dihydroquinoxaline-1(2H)-yl)-2-(4-methylpiperazin-1-yl)ethan-1-one]",≥ 70
22,"O=C(CCN1CCCC1)N1CCN(CC2CC2)c2ccccc21 [Compound 161, 1-(4-(cyclopropylmethyl)-3,4-dihydroquinoxaline-1(2H)-yl)-3-(pyrrolidin-1-yl)propan-1-one]",< 50
23,"CC(C(=O)N1CCN(C(=O)c2ccccc2)c2ccccc21)N1CCN(C)CC1 (stereo not shown) [Compound 201, 1-(4-benzoyl-3,4-dihydroquinoxaline-1(2H)-yl)-2-(4-methylpiperazin-1-yl)propan-1-one]",< 50
24,"CC(C(=O)N1CCN(c2ccccc2)c2cc(F)ccc21)N1CCN(C)CC1 (stereo not shown) [Compound 11, 1-(6-fluoro-4-phenyl-3,4-dihydroquinoxaline-1(2H)-yl)-2-(4-methylpiperazin-1-yl)propan-1-one]",50 to 70
25,"O=C(CN1CCCCC1)N1CCN(c2ccccc2Cl)c2ccccc21 [Compound 132, 1-(4-(2-chlorophenyl)-3,4-dihydroquinoxaline-1(2H)-yl)-2-(piperidin-1-yl)ethan-1-one]",50 to 70
26,"O=C(CCN1CCCCC1)N1CCN(Cc2ccccn2)c2ccccc21 [Compound 115, 3-(piperidin-1-yl)-1-(4-(pyridin-2-ylmethyl)-3,4-dihydroquinoxaline-1(2H)-yl)propan-1-one]",< 50
27,"CC(NC1CCN(C)C1)C(=O)N1CCN(c2ccccc2)c2ccccc21 (stereo not shown) [Compound 65, 2-((1-methylpyrrolidin-3-yl)amino)-1-(4-phenyl-3,4-dihydroquinoxaline-1(2H)-yl)propan-1-one]",< 50
28,"CN1CC[C@H](NCCC(=O)N2CCN(c3ccc(F)cc3)c3ccccc32)C1 [Compound 27, (S)-1-(4-(4-fluorophenyl)-3,4-dihydroquinoxaline-1(2H)-yl)-3-((1-methylpyrrolidin-3-yl)amino)propan-1-one]",≥ 70
29,"CC(C(=O)N1CCN(c2ccc(F)cc2)c2cc(F)ccc21)N1CCCCC1 (stereo not shown) [Compound 53, 1-(6-fluoro-4-(4-fluorophenyl)-3,4-dihydroquinoxaline-1(2H)-yl)-2-(piperidin-1-yl)propan-1-one]",< 50

# Test system: not given
# Experiment: not given
# Conditions: clinical use in IPF patients; cited from earlier work
row,Compound,improvement in lung function (treatment effect) in IPF
1,Cc1ccc(=O)n(-c2ccccc2)c1 [Pirfenidone],about 10%

# Test system: MCR5 cell line
# Experiment: intracellular F-actin polymerization, TGF-β1-treated cells, confocal microscope
# Type: cell-based
# Conditions: 10 μM along with TGF-β1 (10 ng/mL), 48 hours (FIGS. 2A and 2B)
# Description: F-actin polymerization activates transcription factors involved in the activation of myofibroblasts and the initiation of fibrosis. Accordingly, when F-actin polymerization decreases, the expression of fibrosis-causing genes by the transcription factors may be inhibited, and the activation and fibrosis of muscle fiber cells may be reduced. Therefore, in this example, it was confirmed whether the compounds according to the present invention are effective in inhibiting F-actin polymerization.
# An MCR5 cell line was dispensed at 1×10^3 cells/well in a 96-well black micro plate and cultured in Medium 1 (10% FBS-containing MEM) in 5% CO2 at 37° C. for 24 hours. Subsequently, the above medium was exchanged with Medium 2 (0.5% FBS-containing MEM), a compound of the present invention was treated at 10 μM along with TGF-β1 (10 ng/mL), and the cells were incubated for 48 hours. After removing the entire batch, the cells were treated with each of CellMask Orange Actin Tracking Stain (Invitrogen) and NucBlue Live ReadyProbes (Invitrogen) to performing F-actin and cell nucleus staining in accordance with the manufacturer's recommended conditions. Cells treated with the staining reagents were incubated for 30 minutes at 5% CO2 and 37° C. while blocking light. After completing the incubation, the staining reagents were removed, fresh Medium 1 was added to the cells at 100 μL/well, and then the cells were incubated for 5 minutes, followed by removal of the medium. The above process was repeated three times. To observe the stained F-actin and cell nucleus, PBS was added to the plate at 100 μL/well, and then the cells were photographed using a confocal microscope (Leica) and analyzed using Image J software.
row,Compound,intracellular F-actin polymerization
1,"O=C(CCN1CCCCC1)N1CCN(c2ccc(F)cc2)c2cc(F)ccc21 [Compound 38, 1-(6-fluoro-4-(4-fluorophenyl)-3,4-dihydroquinoxaline-1(2H)-yl)-3-(piperidin-1-yl)propan-1-one]",significantly reduced
2,"CC(C(=O)N1CCN(c2ccccc2)c2cc(F)ccc21)N1CCCCC1 (stereo not shown) [Compound 12, 1-(6-fluoro-4-phenyl-3,4-dihydroquinoxaline-1(2H)-yl)-2-(piperidin-1-yl)propan-1-one]",significantly reduced

# Test system: Arp2/3 complex
# Experiment: in vitro actin polymerization test (pyrene-labeled actin)
# Type: biochemical
# Conditions: 10 μM, VCA domain protein, spherical actin monomers, 1 hour, compared to control (FIG. 1)
# Protocol: Although actin polymerization, which is a process of forming actin filaments from actin monomers, is involved in controlling cell movement, tissue fibrosis may be caused by the promotion of excessive α-SMA expression and induction of myofibroblast activation. Accordingly, an in vitro actin polymerization test was performed to confirm the actin polymerization controlling function of the compounds according to the present invention.
# Specifically, a pyrene-labeled spherical actin stock was diluted with general actin buffer (5 mM Tris-HCl pH 8.0, 0.2 mM CaCl2)) and incubated at 4° C. for 1 hour, thereby producing spherical actin monomers. Afterward, 80% of a supernatant was recovered by centrifugation at 20,000×g and 4° C. for 3 hours, and 0.1 mg/mL spherical actin monomers were prepared. The Arp2/3 complex, the VCA domain protein, and Compound 12, 38, or 59 (10 μM each) according to the present invention were added to the spherical actin monomers and an actin polymerization buffer and reacted at room temperature for 1 hour. The increased fluorescence intensity during the reaction from the spherical actin monomer to a fibrous actin polymer was measured using a microplate reader at an excitation wavelength of 360 nm and an emission wavelength of 407 nm. The degree of actin polymerization was shown relative to the maximum polymerization rate (arbitrary units).
row,Compound,actin polymerization activity (maximum polymerization rate)
1,"O=C(CCN1CCCCC1)N1CCN(c2ccc(F)cc2)c2cc(F)ccc21 [Compound 38, 1-(6-fluoro-4-(4-fluorophenyl)-3,4-dihydroquinoxaline-1(2H)-yl)-3-(piperidin-1-yl)propan-1-one]",decreased compared to the control
2,"CC(C(=O)N1CCN(c2ccccc2)c2cc(F)ccc21)N1CCCCC1 (stereo not shown) [Compound 12, 1-(6-fluoro-4-phenyl-3,4-dihydroquinoxaline-1(2H)-yl)-2-(piperidin-1-yl)propan-1-one]",decreased compared to the control

# From US20250002464A1, “NOVEL COMPOUND AND PHARMACEUTICAL COMPOSITION COMPRISING SAME” (SAPIENSBIO INC., priority 2021, published 2025)
